Laboratory results: publication PMC2901217, “Flavonoids activate pregnane × receptor-mediated CYP3A4 gene expression by inhibiting cyclin-dependent kinases in HepG2 liver carcinoma cells” (BMC Biochemistry, 2010)
One block for each compound: values may come before it.

Key:
[1] = tested on: PXR-mediated CYP3A4 promoter activity in HepG2 cells stably transfected with PXR and CYP3A4-luc; assay: PXR transactivation assay (CYP3A4-luc luciferase reporter); settings: 24 h; for Activation of PXR-mediated CYP3A4 promoter (result in words): screen hit in HepG2 PXR/CYP3A4-luc cells; for PXR activation as % of the activity from 2 μM of rifampicin: compound below 10 μM
Procedure: HepG2 cells (2 × 10^4/well) stably transfected with PXR and CYP3A4-luc were seeded in 384-well plates and treated with indicated compounds for 24 h before the luciferase assay. […] Compounds were tested in quadruplicate. The bars denote the standard deviation.
Compounds were added to 384-well plates seeded with cells in a phenol red-free medium containing 5% charcoal/dextran-treated FBS and incubated for 24 h at 37°C before conducting the luciferase assay. The final concentration of DMSO in each well was maintained at 0.1%. DMSO and 2 μM of rifampicin were used as the negative and positive control, respectively. Luciferase activities were detected by using EnVision plate reader (PerkinElmer Life Sciences), as previously reported.

Cdk11 = Cdk11 (Homo sapiens, UniProt Q9BWU1); assay: Cdk kinase profiling assay (Ambit Biosciences); assay type: binding
Procedure: (§1) Since flavonoids have been reported to inhibit multiple Cdks, we investigated the inhibitory effect of flavonoid apigenin on various Cdks. Apigenin inhibited multiple Cdks, including Cdk2, 4, 5, 7, 8, 9 and 11 (Table 1). […] GST was expressed and purified by using pGEX-4T-1 in Escherichia coli BL21 and was used as the negative control. The reaction mixture was incubated at 30°C for 30 min before being electrophoresed by SDS-PAGE. The gel was stained by using SimplyBlue SafeStain (Invitrogen), desiccated by the Labconco gel dryer (Labconco, Kansas City, MO), and exposed overnight to the Storage Phosphor Screen (GE Healthcare). Phosphoimages were obtained by using the Storm scanner (GE Healthcare). In vitro Cdks kinase profiling assays were performed by Ambit Biosciences (San Diego, CA) as previously described.

Cdk2 = Cdk2 (Homo sapiens, UniProt P24941); assay: Cdk kinase profiling assay (Ambit Biosciences); assay type: binding
Procedure: as §1

Cdk3 = Cdk3 (Homo sapiens, UniProt Q00526); assay: Cdk kinase profiling assay (Ambit Biosciences); assay type: binding
Procedure: as §1

Cdk4 = Cdk4 (Homo sapiens, UniProt P11802); assay: Cdk kinase profiling assay (Ambit Biosciences); assay type: binding
Procedure: as §1

Cdk5 = Cdk5 (Homo sapiens, UniProt Q00535); assay: Cdk kinase profiling assay (Ambit Biosciences); assay type: binding
Procedure: as §1

Cdk7 = Cdk7 (Homo sapiens, UniProt P50613); assay: Cdk kinase profiling assay (Ambit Biosciences); assay type: binding
Procedure: as §1

Cdk8 = Cdk8 (Homo sapiens, UniProt P49336); assay: Cdk kinase profiling assay (Ambit Biosciences); assay type: binding
Procedure: as §1

Cdk9 = Cdk9 (Homo sapiens, UniProt P50750); assay: Cdk kinase profiling assay (Ambit Biosciences); assay type: binding
Procedure: as §1

[2] = tested on: Cdk5-mediated inhibition of PXR-mediated CYP3A4 promoter activity in HepG2; assay: Cdk5-mediated inhibition of rifampicin-induced CYP3A4 promoter activity (transient co-transfection, Dual-glo luciferase); assay type: cell-based, human; settings: p < 0.001
Procedure: Next, we determined the functional correlation between the activities of Cdk5 and PXR. […] A total of 20 μg of combined plasmids was used to transfect 5 × 10^6 cells seeded in a T75 flask 16 h before transfection. Transfected cells were seeded into white 96-well plates (at 10,000 cells/well) 24 h later, and treated with DMSO or compounds as indicated for 24 h before Dual-glo luciferase assay. CYP3A4 promoter activity was normalized by using activity of the CMV-renilla, and expressed as fold induction over control (DMSO; without Cdk5 transfection). […] The significance of the difference between datasets was determined by using the Student's t test.

[3] = target: T1, GST-hPXR ligand-binding domain (Homo sapiens, UniProt O75469)
T1 sequence (O75469 146-433 limits assumed): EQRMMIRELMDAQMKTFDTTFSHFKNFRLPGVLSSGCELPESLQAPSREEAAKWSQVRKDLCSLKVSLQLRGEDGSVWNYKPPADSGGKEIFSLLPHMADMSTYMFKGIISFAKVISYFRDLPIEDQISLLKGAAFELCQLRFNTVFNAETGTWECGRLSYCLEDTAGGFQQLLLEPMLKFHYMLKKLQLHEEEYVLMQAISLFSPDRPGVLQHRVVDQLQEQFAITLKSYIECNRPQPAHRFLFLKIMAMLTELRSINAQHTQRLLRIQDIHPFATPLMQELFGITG
Procedure: The time-resolved fluorescence resonance transfer (TR-FRET) PXR competitive binding assay was performed as described previously [9]. Briefly, the assays were performed in a volume of 20 μl in 384-well solid black plates with 5 nM GST-hPXR ligand-binding domain, 40 nM fluorescent-labeled hPXR agonist (Fluomore PXR Green), 5 nM terbium-labeled anti-GST antibody, and test compound at different concentrations. […] Curves were generated by using GraphPad Prism 4.0 (GraphPad Software, La Jolla, CA).

Chain of Cdk11 (Q9BWU1 whole entry): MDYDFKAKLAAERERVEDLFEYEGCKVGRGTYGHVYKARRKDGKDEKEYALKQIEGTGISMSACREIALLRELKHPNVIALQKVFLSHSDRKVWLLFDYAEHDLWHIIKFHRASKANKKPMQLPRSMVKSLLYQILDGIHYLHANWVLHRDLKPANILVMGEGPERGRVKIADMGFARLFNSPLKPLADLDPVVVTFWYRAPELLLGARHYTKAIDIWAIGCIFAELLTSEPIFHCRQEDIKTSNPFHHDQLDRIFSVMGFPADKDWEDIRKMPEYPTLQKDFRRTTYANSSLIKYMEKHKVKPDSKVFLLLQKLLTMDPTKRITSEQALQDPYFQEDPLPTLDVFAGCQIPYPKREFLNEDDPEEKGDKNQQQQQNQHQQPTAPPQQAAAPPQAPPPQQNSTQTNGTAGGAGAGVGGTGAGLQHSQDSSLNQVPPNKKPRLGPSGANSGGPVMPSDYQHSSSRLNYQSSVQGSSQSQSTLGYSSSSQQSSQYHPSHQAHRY
Chain of Cdk4 (P11802 whole entry): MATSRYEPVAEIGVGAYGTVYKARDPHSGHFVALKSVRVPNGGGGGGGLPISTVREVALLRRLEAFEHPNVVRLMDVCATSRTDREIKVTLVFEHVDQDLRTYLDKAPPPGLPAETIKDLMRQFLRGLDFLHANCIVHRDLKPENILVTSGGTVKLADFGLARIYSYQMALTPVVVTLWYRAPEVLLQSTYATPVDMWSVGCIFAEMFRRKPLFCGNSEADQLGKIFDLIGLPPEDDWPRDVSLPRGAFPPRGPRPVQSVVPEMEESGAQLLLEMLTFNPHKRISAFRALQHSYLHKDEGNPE
Chain of Cdk5 (Q00535 whole entry): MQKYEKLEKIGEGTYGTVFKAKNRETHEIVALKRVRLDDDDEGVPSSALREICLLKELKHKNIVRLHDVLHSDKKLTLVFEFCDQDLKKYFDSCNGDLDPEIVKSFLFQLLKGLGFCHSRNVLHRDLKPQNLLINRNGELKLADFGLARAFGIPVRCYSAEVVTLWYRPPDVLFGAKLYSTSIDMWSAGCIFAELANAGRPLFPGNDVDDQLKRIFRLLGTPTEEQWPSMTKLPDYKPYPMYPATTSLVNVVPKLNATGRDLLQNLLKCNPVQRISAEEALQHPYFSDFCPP
Chain of Cdk3 (Q00526 whole entry): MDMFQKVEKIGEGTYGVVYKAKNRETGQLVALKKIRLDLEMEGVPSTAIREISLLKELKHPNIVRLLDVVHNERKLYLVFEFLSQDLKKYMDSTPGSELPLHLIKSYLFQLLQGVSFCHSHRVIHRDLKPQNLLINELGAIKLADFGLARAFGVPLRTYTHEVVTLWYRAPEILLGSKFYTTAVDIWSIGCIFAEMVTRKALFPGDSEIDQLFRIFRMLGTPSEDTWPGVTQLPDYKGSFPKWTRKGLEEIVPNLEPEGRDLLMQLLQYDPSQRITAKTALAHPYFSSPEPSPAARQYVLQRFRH
Chain of Cdk8 (P49336 whole entry): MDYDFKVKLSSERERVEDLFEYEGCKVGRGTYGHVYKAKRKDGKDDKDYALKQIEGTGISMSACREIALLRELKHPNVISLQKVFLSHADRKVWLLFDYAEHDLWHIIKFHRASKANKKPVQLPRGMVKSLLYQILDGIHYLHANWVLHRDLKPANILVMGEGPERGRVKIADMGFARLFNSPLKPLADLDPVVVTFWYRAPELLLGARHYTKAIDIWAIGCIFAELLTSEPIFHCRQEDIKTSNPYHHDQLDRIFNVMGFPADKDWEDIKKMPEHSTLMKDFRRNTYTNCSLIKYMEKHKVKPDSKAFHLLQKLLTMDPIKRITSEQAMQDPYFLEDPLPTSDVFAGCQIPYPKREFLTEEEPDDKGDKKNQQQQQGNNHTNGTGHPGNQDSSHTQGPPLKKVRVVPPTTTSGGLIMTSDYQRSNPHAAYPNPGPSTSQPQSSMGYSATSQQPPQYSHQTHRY
Chain of Cdk9 (P50750 whole entry): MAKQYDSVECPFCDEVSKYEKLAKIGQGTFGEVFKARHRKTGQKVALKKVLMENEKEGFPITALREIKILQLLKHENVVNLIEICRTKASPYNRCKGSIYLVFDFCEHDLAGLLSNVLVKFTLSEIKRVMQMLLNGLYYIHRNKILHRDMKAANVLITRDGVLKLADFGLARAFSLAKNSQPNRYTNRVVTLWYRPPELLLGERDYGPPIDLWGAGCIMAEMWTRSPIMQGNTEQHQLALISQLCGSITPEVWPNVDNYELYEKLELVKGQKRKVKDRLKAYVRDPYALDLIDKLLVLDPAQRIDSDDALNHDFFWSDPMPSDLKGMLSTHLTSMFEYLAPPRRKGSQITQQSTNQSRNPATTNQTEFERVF
Chain of Cdk7 (P50613 whole entry): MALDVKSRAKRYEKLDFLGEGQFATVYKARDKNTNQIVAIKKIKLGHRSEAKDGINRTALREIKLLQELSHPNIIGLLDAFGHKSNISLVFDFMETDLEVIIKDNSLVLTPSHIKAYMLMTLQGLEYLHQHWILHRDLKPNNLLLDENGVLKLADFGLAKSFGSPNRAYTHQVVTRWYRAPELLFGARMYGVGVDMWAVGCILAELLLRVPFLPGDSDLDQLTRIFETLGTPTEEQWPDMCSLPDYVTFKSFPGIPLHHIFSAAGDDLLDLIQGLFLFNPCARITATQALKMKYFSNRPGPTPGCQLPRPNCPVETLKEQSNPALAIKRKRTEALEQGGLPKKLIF

Compound: COc1cc(O)c2c(=O)c(-c3ccc(O)cc3)coc2c1 [prunetin]
Activation of PXR-mediated CYP3A4 promoter (result in words) [1]: potent activators

Compound: O=c1cc(-c2ccc(O)cc2)oc2cc(O)cc(O)c12 [apigenin]
PXR activation as % of the activity from 2 μM of rifampicin [1]: more than 50%
Activation of PXR-mediated CYP3A4 promoter (result in words) [1]: potent activators
Kd (Cdk11): 3 µM
Kd (Cdk2): 9.8 µM
Kd (Cdk3): > 30 µM
Kd (Cdk4): 7 µM
Kd (Cdk5): 3.9 µM
Kd (Cdk7): 1.7 µM
Kd (Cdk8): 5.8 µM
Kd (Cdk9): 2 µM

Compound: COc1ccc(-c2coc3cc(O)cc(O)c3c2=O)cc1 [biochanin A]
Activation of PXR-mediated CYP3A4 promoter (result in words) [1]: potent activators

Next, values leading:

Activation of PXR-mediated CYP3A4 promoter (result in words) [1]: potent activators
Compound: O=c1c(-c2ccc(O)cc2)coc2cc(O)ccc12 [daidzein]

Concentration as potent as 2 μM of rifampicin in inducing PXR activity ([1]; HepG2 PXR/CYP3A4-luc): 4.4 µM
Effect on inhibitory effect of Cdk5 on CYP3A4 promoter activity (result in words) [2]: decreased the inhibitory effect of Cdk5
Compound: CCCC[C@@H](C=O)NC(=O)[C@H](CC(C)C)NC(=O)OCc1ccccc1 [calpeptin, reference compound]

Activation of PXR-mediated CYP3A4 promoter (result in words) [1]: potent activators
Binding to PXR (result in words) [3]: did not bind
Compound: O=c1cc(-c2ccccc2)oc2cc(O)cc(O)c12 [chrysin]

Activation of PXR-mediated CYP3A4 promoter (result in words) [1]: potent activators
Compound: O=c1c(-c2ccc(O)cc2)coc2cc(O)cc(O)c12 [genistein]

PXR activation, times more effective than 2 μM rifampicin ([1]; compound at 40 μM, versus 2 μM rifampicin): 7 times
PXR activation as % of the activity from 2 μM of rifampicin [1]: more than 50%
Activation of PXR-mediated CYP3A4 promoter (result in words) [1]: potent activators
Compound: O=c1cc(-c2ccc(O)c(O)c2)oc2cc(O)cc(O)c12 [luteolin]
